Measurements reported in ChEMBL document CHEMBL4270495, “Oleanane-, ursane-, and quinone methide friedelane-type triterpenoid derivatives: Recent advances in cancer treatment” (Eur J Med Chem, 2017).
pIC50: −log10 of the molar value.

Tests used:
[1] = test system: MCF7; experiment: Cytotoxicity in human MCF7 cells assessed as reduction in cell viability incubated for 72 hrs by CCK8 assay; format: functional, cell-based; conditions: MCF7, 72 h
[2] = test system: PC-3; experiment: Cytotoxicity in human PC3 cells assessed as reduction in cell viability incubated for 72 hrs by CCK8 assay; format: functional, cell-based; conditions: PC-3, 72 h
[3] = test system: MDA-MB-231; experiment: Cytotoxicity in human MDA-MB-231 cells assessed as reduction in cell viability incubated for 48 hrs by SRB assay; format: functional; conditions: MDA-MB-231, 48 h
[4] = Cytotoxicity in human SPCA2 cells assessed as reduction in cell viability incubated for 48 hrs by MTT assay; format: functional, cell-based; conditions: SPCA2, 48 h
[5] = test system: T-24; experiment: Cytotoxicity in human T24 cells assessed as reduction in cell viability incubated for 48 hrs by MTT assay; format: functional, cell-based; conditions: T-24, 48 h
[6] = test system: A549; experiment: Cytotoxicity in human A549 cells assessed as reduction in cell viability incubated for 72 hrs by CCK8 assay; format: functional, cell-based; conditions: A549, 72 h
[7] = test system: HUVEC; experiment: Cytotoxicity in HUVEC cells assessed as reduction in cell viability incubated for 48 hrs by MTT assay; format: cell-based; conditions: Homo sapiens
[8] = test system: MCF7; experiment: Cytotoxicity in human MCF7 cells assessed as reduction in cell viability incubated for 48 hrs by SRB assay; format: functional, cell-based; conditions: MCF7, 48 h
[9] = test system: A549; experiment: Cytotoxicity in human A549 cells assessed as reduction in cell viability incubated for 48 hrs by MTT assay; format: functional, cell-based; conditions: A549, 48 h
[10] = test system: HeLa; experiment: Cytotoxicity in human HeLa cells assessed as reduction in cell viability incubated for 72 hrs by CCK8 assay; format: functional, cell-based
[11] = test system: SGC-7901; experiment: Cytotoxicity in human SGC7901 cells assessed as reduction in cell viability incubated for 72 hrs by CCK8 assay; format: functional, cell-based; conditions: SGC-7901, 72 h
[12] = test system: T47D; experiment: Cytotoxicity in human T47D cells assessed as reduction in cell viability incubated for 24 hrs by MTT assay; format: functional, cell-based
[13] = test system: MCF7; experiment: Cytotoxicity in human MCF7 cells assessed as reduction in cell viability incubated for 24 hrs by MTT assay; format: functional, cell-based; conditions: MCF7, 24 h
[14] = test system: HL60/ADR; experiment: Cytotoxicity in human HL60/ADR cells assessed as reduction in cell viability incubated for 24 hrs by MTT assay; format: functional, cell-based
[15] = test system: HL-60; experiment: Cytotoxicity in human HL60 cells assessed as reduction in cell viability incubated for 24 hrs by MTT assay; format: functional, cell-based; conditions: HL-60, 24 h
[16] = test system: MDA-MB-231; experiment: Cytotoxicity in human MDA-MB-231 cells assessed as reduction in cell viability incubated for 24 hrs by MTT assay; format: functional, cell-based; conditions: MDA-MB-231, 24 h
[17] = test system: MCF-12A; experiment: Cytotoxicity in human MCF12A cells assessed as reduction in cell viability incubated for 24 hrs by MTT assay; format: functional, cell-based
[18] = test system: MDA-MB-468; experiment: Cytotoxicity in human MDA-MB-468 cells assessed as reduction in cell viability incubated for 24 hrs by MTT assay; format: functional, cell-based; conditions: MDA-MB-468, 24 h
[19] = test system: B16-F10; experiment: Cytotoxicity in mouse B16F10 cells assessed as reduction in cell viability incubated for 72 hrs by MTT assay; format: functional, cell-based; conditions: B16-F10, 72 h
[20] = test system: HepG2; experiment: Cytotoxicity in human HepG2 cells assessed as reduction in cell viability incubated for 72 hrs by MTT assay; format: functional, cell-based; conditions: HepG2, 72 h
[21] = test system: HT-29; experiment: Cytotoxicity in human HT-29 cells assessed as reduction in cell viability incubated for 72 hrs by MTT assay; format: functional, cell-based; conditions: HT-29, 72 h
[22] = test system: HepG2; experiment: Cytotoxicity in human HepG2 cells assessed as reduction in cell viability incubated for 72 hrs by CCK8 assay; format: functional, cell-based; conditions: HepG2, 72 h
[23] = test system: SMMC-7721; experiment: Cytotoxicity in human SMMC7721 cells assessed as reduction in cell viability incubated for 48 hrs by MTT assay; format: functional, cell-based; conditions: SMMC-7721, 48 h
[24] = test system: SGC-7901; experiment: Cytotoxicity in human SGC7901 cells assessed as reduction in cell viability incubated for 48 hrs by MTT assay; format: functional, cell-based; conditions: SGC-7901, 48 h
[25] = Cytotoxicity in human […] cells assessed as reduction in cell viability incubated for 72 hrs by MTT assay; format: functional, cell-based
[26] = test system: A549; experiment: Cytotoxicity in human A549 cells assessed as reduction in cell viability incubated for 96 hrs by SRB assay; format: functional, cell-based; conditions: A549, 96 h
[27] = test system: HT-29; experiment: Cytotoxicity in human HT-29 cells assessed as reduction in cell viability incubated for 96 hrs by SRB assay; format: functional, cell-based; conditions: HT-29, 96 h
[28] = test system: BGC-823; experiment: Cytotoxicity in human BGC823 cells assessed as reduction in cell viability; format: functional, cell-based
[29] = test system: HeLa; experiment: Cytotoxicity in human HeLa cells assessed as reduction in cell viability; format: functional, cell-based
[30] = test system: HepG2; experiment: Cytotoxicity in human HepG2 cells assessed as reduction in cell viability incubated for 24 hrs by MTT assay; format: functional, cell-based; conditions: HepG2, 24 h
[31] = test system: MCF7; experiment: Cytotoxicity in human MCF7 cells assessed as reduction in cell viability; format: functional, cell-based
[32] = test system: A-375; experiment: Cytotoxicity in human A375 cells assessed as reduction in cell viability incubated for 24 hrs by MTT assay; format: functional, cell-based; conditions: A-375, 24 h
[33] = Cytotoxicity in human SPC-A1 cells assessed as reduction in cell viability incubated for 24 hrs by MTT assay; format: functional, cell-based; conditions: SPCA1, 24 h
[34] = test system: NCI-H446; experiment: Cytotoxicity in human NCI-H446 cells assessed as reduction in cell viability incubated for 24 hrs by MTT assay; format: functional, cell-based; conditions: NCI-H446, 24 h
[35] = test system: HeLa; experiment: Cytotoxicity in human HeLa cells assessed as reduction in cell viability incubated for 48 hrs by MTT assay; format: functional, cell-based
[36] = test system: HepG2; experiment: Cytotoxicity in human HepG2 cells assessed as reduction in cell viability incubated for 48 hrs by MTT assay; format: functional, cell-based; conditions: HepG2, 48 h

**Q.** With `C[C@H]1[C@H](C)CC[C@]2(C(=O)O)CC[C@]3(C)C(=CC[C@@H]4[C@@]5(C)C[C@@H](O)[C@H](O)[C@@](C)(CO)[C@@H]5CC[C@]43C)[C@H]12` [ASIATIC ACID] as the compound, how does the pIC50 [1] read?
**A.** Its pIC50 is 4.48.

**Q.** And the pIC50 [2]?
**A.** Its pIC50 is 4.27.

**Q.** And the GI50 [3]?
**A.** Its GI50 is 18.1 µM.

**Q.** What about the pIC50 [4] of the same compound?
**A.** The pIC50 was 4.40.

**Q.** What about the pIC50 [5] of the same compound?
**A.** The pIC50 was 4.47.

**Q.** What about the pIC50 [6] of the same compound?
**A.** Its pIC50 is 4.73.

**Q.** And the pIC50 [7]?
**A.** The pIC50 was < 4.00.

**Q.** What about the GI50 [8] of the same compound?
**A.** The GI50 was 19.1 µM.

**Q.** And the pIC50 [9]?
**A.** The pIC50 was 4.42.

**Q.** And the pIC50 [10]?
**A.** The pIC50 was 4.26 to 5.40.

**Q.** What about the pIC50 [11] of the same compound?
**A.** Its pIC50 is 4.43.

**Q.** What does the source list for `CC1(C)CC[C@@]23CC[C@]4(C)[C@@](OC2=O)([C@@H]3C1)[C@@H](Br)C[C@@H]1[C@@]2(C)CC/C(=N\O)C(C)(C)[C@@H]2CC[C@]14C`?
**A.** pIC50 [12]: 5.24; pIC50 [13]: 5.18; pIC50 [14]: 4.92; pIC50 [15]: 4.99; pIC50 [16]: < 4.30; pIC50 [17]: 4.69; pIC50 [18]: 5.24

**Q.** With `CCCC(=O)O[C@@H]1C[C@]2(C)[C@H]3CC=C4[C@@H]5CC(C)(C)CC[C@]5(C(=O)NCCCCCCCCCCC(=O)O)CC[C@@]4(C)[C@]3(C)CC[C@H]2C(C)(C)[C@H]1OC(=O)CCC` as the compound, how does the pIC50 [19] read?
**A.** Its pIC50 is 5.24.

**Q.** And the pIC50 [20]?
**A.** The pIC50 was 4.56.

**Q.** What about the pIC50 [21] of the same compound?
**A.** The pIC50 was 5.86.

**Q.** With `COC(=O)C1CCCN1C(=O)[C@]12CC[C@@H](C)[C@H](C)[C@H]1C1=CC[C@@H]3[C@@]4(C)C[C@@H](OC(C)=O)[C@H](OC(C)=O)[C@@](C)(COC(C)=O)[C@@H]4CC[C@@]3(C)[C@]1(C)CC2` (stereo not given in full) as the compound, how does the pIC50 [1] read?
**A.** The pIC50 was 5.35.

**Q.** What about the pIC50 [2] of the same compound?
**A.** Its pIC50 is 5.04.

**Q.** What about the pIC50 [6] of the same compound?
**A.** The pIC50 was 5.62.

**Q.** And the pIC50 [22]?
**A.** Its pIC50 is 6.05.

**Q.** What about the pIC50 [10] of the same compound?
**A.** Its pIC50 is 5.32.

**Q.** And the pIC50 [11]?
**A.** The pIC50 was 5.34.

**Q.** With `CC1=C(O)C(=O)C=C2C1=CC=C1[C@@]2(C)CC[C@@]2(C)[C@@H]3C[C@](C)(C(=O)NCCO)CC[C@]3(C)CC[C@]12C` as the compound, how does the pIC50 [23] read?
**A.** Its pIC50 is 6.52.

**Q.** And the pIC50 [24]?
**A.** Its pIC50 is 6.80.

**Q.** With `C[C@H]1[C@H](C)CC[C@]2(C(=O)OCc3ccccc3)CC[C@]3(C)C(=CC[C@@H]4[C@@]5(C)CC[C@H](OC(=O)CCC(=O)O)C(C)(C)[C@@H]5CC[C@]43C)[C@H]12` as the compound, how does the pIC50 [25] read?
**A.** Its pIC50 is 5.09.

**Q.** Which results are given for `COC(=O)C(C)NC(=O)[C@]12CC[C@@H](C)[C@H](C)[C@H]1C1=CC[C@@H]3[C@@]4(C)C[C@@H](O)[C@H](O)[C@@](C)(CO)[C@@H]4CC[C@@]3(C)[C@]1(C)CC2` (stereo not given in full)?
**A.** pIC50 [1]: 4.77; pIC50 [6]: 4.66; pIC50 [22]: 4.69; pIC50 [10]: 4.72

**Q.** With `COC(=O)[C@]12CCC(C)(C)C[C@H]1C1=CC[C@@H]3[C@@]4(C)C[C@@H](OS(N)(=O)=O)[C@H](O)C(C)(C)[C@@H]4CC[C@@]3(C)[C@]1(C)CC2` as the compound, how does the pIC50 [26] read?
**A.** Its pIC50 is 5.19.

**Q.** What about the pIC50 [27] of the same compound?
**A.** Its pIC50 is 5.12.

**Q.** With `CC(=O)O[C@@H]1C[C@]2(C)[C@H]3CC=C4[C@@H]5CC(C)(C)CC[C@]5(C(=O)NCCCCCCCCCCC(=O)O)CC[C@@]4(C)[C@]3(C)CC[C@H]2C(C)(C)[C@H]1OC(C)=O` as the compound, how does the pIC50 [19] read?
**A.** The pIC50 was 5.62.

**Q.** What about the pIC50 [20] of the same compound?
**A.** The pIC50 was 4.85.

**Q.** And the pIC50 [21]?
**A.** The pIC50 was 5.51.

**Q.** With `CCCC(=O)O[C@H]1CC[C@]2(C)[C@H]3CC=C4[C@@H]5[C@@H](C)[C@H](C)CC[C@]5(C(=O)N5CCOCC5)CC[C@@]4(C)[C@]3(C)CC[C@H]2C1(C)C` as the compound, how does the pIC50 [28] read?
**A.** The pIC50 was 5.01.

**Q.** And the pIC50 [29]?
**A.** Its pIC50 is < 5.00.

**Q.** Which results are given for `CC(=O)O[C@H]1CC[C@]2(C)[C@H]3CC=C4[C@@H]5[C@@H](C)[C@H](C)CC[C@]5(C(=O)NCCCCC(C)N)CC[C@@]4(C)[C@]3(C)CC[C@H]2C1(C)C` (stereo not given in full)?
**A.** pIC50 [30]: 5.30; pIC50 [31]: 5.32

**Q.** With `C[C@@H]1CC[C@]2(C(=O)O)CC[C@]3(C)C(=CC(=O)[C@@H]4[C@@]5(C)CC[C@H](O)[C@](C)(CO)[C@@H]5CC[C@]43C)[C@@H]2[C@]1(C)O` as the compound, how does the pIC50 [30] read?
**A.** Its pIC50 is 5.13.

**Q.** What about the pIC50 [32] of the same compound?
**A.** Its pIC50 is 4.76 to 4.78.

**Q.** And the pIC50 [33]?
**A.** The pIC50 was 4.07.

**Q.** And the pIC50 [24]?
**A.** Its pIC50 is 4.78.

**Q.** What about the pIC50 [34] of the same compound?
**A.** The pIC50 was 4.94.

**Q.** What about the pIC50 [35] of the same compound?
**A.** The pIC50 was 4.73.

**Q.** And the pIC50 [36]?
**A.** Its pIC50 is 5.08.
